# Test results as given in patent US20120071475A1, “UREA DERIVATIVES HAVING PI3K-INHIBITING ACTIVITY” (SHIONOGI & CO., LTD., priority 2009, published 2012).
# Columns and labels:
# [1] = BA test (oral absorbability, bioavailability); type: in vivo
# Description: An experimental material and a method for examining oral absorbability
# (1) Animals used: rats or mice were used. (2) Breeding condition: chow and sterilized tap water were allowed to be taken in freely. (3) Setting of a dosage and grouping: a predetermined dosage was administered orally or intravenously. Groups were formed as shown below. (A dosage varied depending on each compound)
# Oral administration 1-30 mg/kg (n=2 to 3)
# Intravenous administration 0.5-10 mg/kg (n=2 to 3)
# (4) Preparation of administered liquid: In oral administration, a solution or suspension was administered. In intravenous administration, after solubilization, the administration was performed. (5) Method of Administration: In oral administration, compulsory administration to the stomach was conducted using an oral probe. In intravenous administration, administration from the caudal vein was conducted using a syringe with an injection needle. (6) Evaluation item: Blood was chronologically collected, and then the drug concentration in blood plasma was measured using a LC/MS/MS. (7) Statistical analysis: With regard to a shift in plasma concentration, the plasma concentration-time area under the curve (AUC) was calculated using a nonlinear least-squares program WinNonlin®. Bioavailability (BA) was calculated from the AUCs of the oral administration group and the intravenous administration group, respectively.
# CYP3A4 = target: T1, CYP3A4 (Homo sapiens, UniProt P08684); assay: CYP3A4 fluorescence MBI test; type: in vitro ADME; conditions: difference in IC50 with 0 or 30 minutes pre-reaction; CYP3A4 expressed in E. coli, substrate 7-BFC
# T1 construct: host or cells: E. coli
# T1 sequence (P08684 whole entry): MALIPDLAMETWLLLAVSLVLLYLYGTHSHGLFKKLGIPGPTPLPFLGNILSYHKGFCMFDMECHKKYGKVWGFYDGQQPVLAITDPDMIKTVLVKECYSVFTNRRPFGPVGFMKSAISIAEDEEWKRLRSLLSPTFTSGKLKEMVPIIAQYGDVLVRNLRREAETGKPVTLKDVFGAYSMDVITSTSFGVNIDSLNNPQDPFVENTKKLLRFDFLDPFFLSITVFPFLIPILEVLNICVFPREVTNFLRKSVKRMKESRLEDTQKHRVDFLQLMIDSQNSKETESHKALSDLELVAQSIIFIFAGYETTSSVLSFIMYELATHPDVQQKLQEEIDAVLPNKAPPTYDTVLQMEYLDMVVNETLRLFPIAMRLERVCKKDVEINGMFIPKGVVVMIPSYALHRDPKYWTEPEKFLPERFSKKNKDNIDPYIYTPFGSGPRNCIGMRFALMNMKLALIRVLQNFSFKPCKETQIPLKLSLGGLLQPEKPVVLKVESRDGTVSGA
# In short: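 E. coli-expressed CYP3A4 debenzylating 5.6 μmol/L 7-BFC to fluorescent 7-HFC (Ex 420/Em 535 nm) in K-Pi pH 7.4 at 25° C, 15 min reaction. NADPH pre-incubation of 0 or 30 min, with 10-fold dilution before reaction. IC50 from 0.625–20 μmol/L (6 points); (+) for an IC50 shift ≥5 μmol/L, (−) for ≤3 μmol/L.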
# [2] = target: T2, human ether-a-go-go related gene (hERG) channel (Homo sapiens, UniProt Q12809); assay: hERG test (whole-cell patch-clamp, IKr in HEK293 cells); type: cell-based; conditions: inhibition of maximum tail current (IKr), HEK293 cell expressing hERG, compound 1 μM, 10 minutes; 1 µM
# T2 construct: expressed in transfected cells; host or cells: HEK293
# T2 sequence (Q12809 whole entry): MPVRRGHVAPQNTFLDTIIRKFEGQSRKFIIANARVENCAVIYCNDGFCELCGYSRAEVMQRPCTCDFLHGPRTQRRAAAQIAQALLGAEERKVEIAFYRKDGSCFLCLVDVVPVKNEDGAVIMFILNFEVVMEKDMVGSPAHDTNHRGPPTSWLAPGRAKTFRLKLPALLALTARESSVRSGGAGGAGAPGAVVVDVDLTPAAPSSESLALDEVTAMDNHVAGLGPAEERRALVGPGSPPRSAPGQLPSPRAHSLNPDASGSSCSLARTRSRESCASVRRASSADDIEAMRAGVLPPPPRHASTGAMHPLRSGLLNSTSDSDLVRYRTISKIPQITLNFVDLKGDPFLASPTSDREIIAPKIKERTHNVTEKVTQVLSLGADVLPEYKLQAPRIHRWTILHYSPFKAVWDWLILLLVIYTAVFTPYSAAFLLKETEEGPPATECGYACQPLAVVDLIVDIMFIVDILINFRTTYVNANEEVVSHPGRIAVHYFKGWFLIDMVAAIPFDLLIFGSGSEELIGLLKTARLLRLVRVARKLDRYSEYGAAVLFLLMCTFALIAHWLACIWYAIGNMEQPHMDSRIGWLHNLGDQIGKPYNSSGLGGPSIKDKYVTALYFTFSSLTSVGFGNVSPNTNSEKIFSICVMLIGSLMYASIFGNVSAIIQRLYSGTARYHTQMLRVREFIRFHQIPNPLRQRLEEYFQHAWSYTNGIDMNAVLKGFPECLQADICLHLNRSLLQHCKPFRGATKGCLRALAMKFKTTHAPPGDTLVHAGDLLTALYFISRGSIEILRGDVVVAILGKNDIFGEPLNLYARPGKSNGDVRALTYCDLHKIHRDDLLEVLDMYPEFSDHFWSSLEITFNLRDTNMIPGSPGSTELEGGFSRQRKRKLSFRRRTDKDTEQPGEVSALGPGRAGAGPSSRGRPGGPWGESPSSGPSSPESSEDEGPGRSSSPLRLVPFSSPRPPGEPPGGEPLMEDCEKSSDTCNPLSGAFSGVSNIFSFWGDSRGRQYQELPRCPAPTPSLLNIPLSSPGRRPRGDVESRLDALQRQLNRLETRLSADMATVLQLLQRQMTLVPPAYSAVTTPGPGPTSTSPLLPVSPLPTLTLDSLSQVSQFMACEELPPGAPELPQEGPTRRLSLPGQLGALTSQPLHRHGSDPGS
# In short: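 hERG-expressing HEK293 cells, automated whole-cell patch clamp: hold −80 mV, +50 mV for 2 s, then −50 mV for 2 s to record IKr tail current. Compound in extracellular solution (pH 7.4) for 10 min at room temperature; inhibition of maximum tail current calculated versus pre-application and compared with 0.1% DMSO vehicle.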
# [3] = Solubility test (artificial intestinal juice pH 6.8, 1% DMSO); type: physicochemical; conditions: artificial intestinal juice pH 6.8 with 1% DMSO, fassgf or other biorelevant, kinetic from dmso stock, 25° C.
# Description: The solubility of a compound was determined under a condition in which 1% DMSO was added. 10 mmol/L compound solution was prepared using DMSO, and then 6 μL of the compound solution was added to 594 μL of artificial intestinal juice in pH 6.8 (to 250 mL of 0.2 mol/L potassium dihydrogen phosphate reagent solution was added 118 mL of 0.2 mol/L NaOH reagent solution and water to provide a final volume of 1000 mL). After standing at 25° C. for 16 hours, the mixed solution was filtered with suction. The filtrate was diluted twice with methanol/water (1/1), and then a concentration in the filtration was measured with HPLC or LC/MS/MS by the absolute calibration method.
smiles,measurement,setting,value
COc1cc(N2CCc3nc(NC(=O)Nc4ccccc4C(=O)NC(C)C)sc3C2)nc(OC)n1 [Compound I-12],"BA (Rat, 1 mg/kg, Methylcellulose suspension Oral Administration)",[1],46.8%
same,MBI,CYP3A4,"(−) (When 3 μmol/L or less, the compound is shown as (−))"
COc1cc(N2CCc3nc(NC(=O)Nc4ccccc4C(=O)NCCF)sc3C2)nc(OC)n1 [Compound I-88],MBI,CYP3A4,"(−) (When 3 μmol/L or less, the compound is shown as (−))"
COc1nc(Cl)cc(N2CCc3nc(NC(=O)Nc4cnccc4C(=O)NC(C)C)sc3C2)n1 [Compound I-91],MBI,CYP3A4,"(−) (When 3 μmol/L or less, the compound is shown as (−))"
COc1cncc(-c2ccc3nc(NC(=O)Nc4ccccc4OCCC(C)C)cn3n2)c1 [Compound I-114],MBI,CYP3A4,"(−) (When 3 μmol/L or less, the compound is shown as (−))"
CC(C)NC(=O)c1ccccc1NC(=O)Nc1nc2c(s1)CN(c1cncc(C(F)(F)F)c1)CC2 [Compound I-131],MBI,CYP3A4,"(−) (When 3 μmol/L or less, the compound is shown as (−))"
COc1cc(N2CCc3nc(NC(=O)Nc4ccccc4C(=O)NC(C)C(O)C(F)(F)F)sc3C2)nc(OC)n1 (stereo not drawn) [Compound I-139],MBI,CYP3A4,"(−) (When 3 μmol/L or less, the compound is shown as (−))"
same,hERG(at 1 μM) % Inhibition,[2],8.5%
COc1cc(N2CCc3nc(NC(=O)Nc4cn(C)nc4C(=O)NCC(F)(F)F)sc3C2)nc(OC)n1 [Compound I-148],"BA (Rat, 1 mg/kg, Methylcellulose suspension Oral Administration)",[1],45.1%
Cc1nc(NC(=O)Nc2ccccc2C(=O)NC(C)C)sc1-c1csc(S(=O)(=O)N(C)CCN(C)C)c1 [Compound I-191],solubility at 16 h,[3],> 50 µM
COc1cc(N2CCc3nc(NC(=O)Nc4ccccc4C(=O)NN4CCN(C)CC4)sc3C2)nc(OC)n1 [Compound I-195],MBI,CYP3A4,"(−) (When 3 μmol/L or less, the compound is shown as (−))"
same,solubility at 16 h,[3],> 50 µM
CC(C)NC(=O)c1ccccc1NC(=O)Nc1nc2c(s1)CN(c1cccc(S(C)(=O)=O)c1)CC2 [Compound I-198],solubility at 16 h,[3],10.1 µM
C[C@@H](CO)NC(=O)c1ccccc1NC(=O)Nc1nc2c(s1)CN(c1cncc(S(C)(=O)=O)c1)CC2 [Compound I-211],MBI,CYP3A4,"(−) (When 3 μmol/L or less, the compound is shown as (−))"
COc1cncc(-c2cc(NC(=O)Nc3ccccc3C(=O)NC(C)C)nn2C)c1 [Compound I-226],MBI,CYP3A4,"(−) (When 3 μmol/L or less, the compound is shown as (−))"
